This is an account of results in patent EP0933027A1, “Methods and compositions for protecting animals and humans against attack and infestation by arthropod and helminth parasites” (American Cyanamid Company, priority 1998, dated 1999).

The test system of assay [1] is Pyrethroid-susceptible horn fly (Haematobia irritans). The assay is described as follows: Treated filter paper test against adult pyrethroid-susceptible horn fly. To be noted: corrected for control mortality. On the procedure: Test doses are expressed as µg of test substance per cm^2 of filter paper. • 1) Prepare solutions of test compound in acetone such that 800 or 1000 µL contains the amount necessary to obtain the desired dose rate. • 2) Pipette 800 or 1000 µL of test solution onto filter paper. • 3) Filter papers are dried under a fume hood. • 4) When dry, filter papers are placed in the petri dish tops. Dishes are generally held about 24 hours before test organism is added. • 5) Two- to five-day-old horn flies (pyrethroid-susceptible or -resistant) which have had two or more blood meals are used in the assay. Flies are collected into a small vial from the holding cage. Vials are then chilled in a freezer for about 4 minutes to immobilize the flies. Immobilized flies are then distributed to petri dish bottoms, 12 to 25 flies per dish, then dishes are closed and inverted. • 6) As soon as the flies become mobile (about 5 minutes), they are examined to detect any flies that are dead or injured. This number is subtracted from total number of flies in the dish. • 7) Petri dishes are held at room temperature and examined at the desired time intervals which might be 10 minutes to 6 hours. • 8) All dead flies are recorded at each examination time. […] 10) Percent mortality at any time period is calculated using the following formula: (Number of dead flies - number dead @ 5 min)/(Total number of flies - number dead @ 5 min)x 100 [formula] Percent mortality is then corrected for control mortality using Abbot's formula.

Assay [2] relates to ovine Trichstrongylus colubriformis larvae. The assay is described as follows: Systemic activity against helminth larvae in infected Mongolian gerbils (medicated diet). It counts as in vivo. To be noted: 500 ppm in feed; medicated diet for 3 days from ten days post infection; nematode burdens treated versus non-treated. The protocol: This test is designed to evaluate the systemic activity of test compounds against helminth parasites. Mongolian gerbils are infected orally with ovine Trichstrongylus colubrifomis larvae. Ten days post infection, the gerbils are treated with test compounds by diet incorporation. After feeding on the medicated diet for 3 days, the gerbils are sacrificed and gastrointestinal nematode populations are counted. Efficacy is determined by statistical analyses of treated versus non-treated nematode burdens.

Consider `F/C(=C\Cc1ccc(F)c(Oc2ccccc2)c1)C(c1ccc(Cl)cc1)C1CC1` (stereo not shown) [Compound 5, 1-[1-(p-Chlorophenyl)-2-fluoro-4-(4-fluoro-3-phenoxyphenyl)-2-butenyl]cyclopropane, (Z)-], for which, in assay [1] (dose 0.1560 µg/cm^2, 6 hours), the mortality at 0.156 µg/cm2 amounted to 0%. For the same compound, the mortality at 0.3125 µg/cm2 in assay [1] (dose 0.3125 µg/cm^2, 6 hours) is 5%. Also, the mortality at 0.625 µg/cm2 in assay [1] (dose 0.625 µg/cm^2, 6 hours) is 27%. The same compound gave a mortality at 1.25 µg/cm2 in assay [1] (dose 1.25 µg/cm^2, 6 hours) of 88%. Besides, in assay [1] (dose 2.50 µg/cm^2, 6 hours), the mortality at 2.5 µg/cm2 is 98%. Further, the mortality at 5 µg/cm2 in assay [1] (dose 5.00 µg/cm^2, 6 hours) turned out to be 100%. The “% Efficacy” value in assay [2] is 46%.
